Reference: patent US10702507B2, “Endoparasite control agent” (THE UNIVERSITY OF TOKYO, priority 2014, dated 2020)

What follows are compounds tested on 1st-stage larvae of Haemonchus contortus (assay: Test for effect on motion of larvae of Haemonchus nematode). Conditions: 20 larvae per well, 27° C./95% RH for 4 days, corrected against DMSO negative control, duplicate.
Method: Test for Effect on Motion of Larvae of Haemonchus Nematode (Haemonchus contortus) The compound of the present invention was prepared as solutions in 100% DMSO at the final concentrations of 50 ppm, 5 ppm, 0.5 ppm, 0.05 ppm and 0.005 ppm. DMSO stands for dimethyl sulfoxide. A larval suspension containing 1st-stage larvae of Haemonchus contortus harvested by the Baermann technique (for example, see K. Nakazono et al., “Inclination of Baermann funnel wall and efficiency of nematode extraction” Proc. Assoc. Pl. Prot. Kyushu 33: 126-130 (1987)) was placed at a density of 20 larvae per well in a test plate, and 0.5 μL/well of the test solution containing the compound of the present invention diluted to a predetermined concentration was added to the test plate. The plate was kept under the conditions of 27° C./95% RH for 4 days. In the test, ivermectin was used for the positive control and DMSO was used for the negative control. The motor ability of the larvae was examined with an automatic analyzer equipped with an LCD camera. The inhibitory effect on the motion of the larvae in each treatment plot was corrected based on the inhibitory effect in the plot treated with DMSO only for the negative control. The EC50 value was calculated from the data on the corrected inhibitory effect on the motion of the larvae, and graded according to the criteria shown below. The test was conducted in duplicate per plot.

SMILES	EC50 value of corrected inhibitory effect on the motion of the larvae, graded
O=C(NCC1(c2ccc(Oc3ncc(Cl)cc3Cl)cc2Cl)CC1)c1ccccc1C(F)(F)F [Compound 1-49]	C or higher
O=C(NCCc1ccc(-c2ccc(C(F)(F)F)cc2)cc1Cl)c1ccccc1C(F)(F)F [Compound 1-50]	C or higher
O=C(NCCc1ccc(-c2cccc(C(F)(F)F)c2)cc1Cl)c1ccccc1C(F)(F)F [Compound 1-51]	C or higher
O=C(NCCc1ccc(-c2cc(F)cc(F)c2)cc1Cl)c1ccccc1C(F)(F)F [Compound 1-52]	C or higher
COc1ccc(-c2ccc(CCNC(=O)c3ccccc3C(F)(F)F)c(Cl)c2)cc1 [Compound 1-53]	C or higher
O=C(NCCc1ccc(-c2ccccc2)cc1Cl)c1ccccc1C(F)(F)F [Compound 1-54]	C or higher
O=C(NCCc1ccc(-c2ccncc2)cc1Cl)c1ccccc1C(F)(F)F [Compound 1-55]	C or higher
O=C(NCCc1ccc(-c2cccnc2)cc1Cl)c1ccccc1C(F)(F)F [Compound 1-56]	C or higher
COC(CNC(=O)c1ccccc1C(F)(F)F)c1ccc(Oc2nc3ccccc3s2)cc1Cl (stereo not shown) [Compound 1-63]	C or higher
COC(CNC(=O)c1ccccc1C(F)(F)F)c1ccc(Oc2ccc(C(F)(F)F)cc2)cc1Cl (stereo not shown) [Compound 1-65]	C or higher
COC(CNC(=O)c1ccccc1C(F)(F)F)c1ccc(Oc2cccnc2)cc1Cl (stereo not shown) [Compound 1-67]	C or higher
O=C(NCCc1ncc(-c2ccccc2)cc1Cl)c1ccccc1C(F)(F)F [Compound 2-1]	C or higher
O=C(NCCc1ncc(-c2ccc(C(F)(F)F)cc2)cc1Cl)c1ccccc1C(F)(F)F [Compound 2-2]	C or higher
O=C(NCCc1ncc(-c2cccc(C(F)(F)F)c2)cc1Cl)c1ccccc1C(F)(F)F [Compound 2-3]	C or higher
O=C(NCCc1ncc(-c2cc(F)cc(F)c2)cc1Cl)c1ccccc1C(F)(F)F [Compound 2-4]	C or higher
COc1ccc(-c2cnc(CCNC(=O)c3ccccc3C(F)(F)F)c(Cl)c2)cc1 [Compound 2-5]	C or higher
